Patent US20020019395A1, “Indalone and benzimidazolone inhibitors of factor Xa” (priority 2000, published 2002)

Legend:
Assay type in all cases: biochemical
thrombin = thrombin (Homo sapiens, UniProt P00734); experiment: thrombin amidolytic assay (IIA); conditions: substrate Chromozym TH, pH 7.5, room temperature
Description: (§1) The compounds of the present invention are dissolved in buffer to give solutions containing concentrations such that assay concentrations range from about 0 to about 100 μM. In the assays for thrombin, prothrombinase and factor Xa, a synthetic chromogenic substrate is added to a solution containing test compound and the enzyme of interest and the residual catalytic activity of that enzyme is determined spectrophotometrically. The IC50 of a compound is determined from the substrate turnover. The IC50 is the concentration of test compound giving about 50% inhibition of the substrate turnover.
(§2) The factor Xa and thrombin assays were performed at room temperature, in 0.02 M Tris.HCl buffer, pH 7.5, containing 0.15 M NaCl. The rates of hydrolysis of the para-nitroanilide substrate S-2765 (Chromogenix) for factor Xa, and the substrate Chromozym TH (Boehringer Mannheim) for thrombin following preincubation of the enzyme with inhibitor for 5 minutes at room temperature, and were determined using the Softmax 96-well plate reader (Molecular Devices), monitored at 405 nm to measure the time dependent appearance of p-nitroaniline.

APC = APC (Homo sapiens, UniProt P04070); experiment: APC protease inhibition assay
Sequence of APC (P04070 212-450 limits assumed): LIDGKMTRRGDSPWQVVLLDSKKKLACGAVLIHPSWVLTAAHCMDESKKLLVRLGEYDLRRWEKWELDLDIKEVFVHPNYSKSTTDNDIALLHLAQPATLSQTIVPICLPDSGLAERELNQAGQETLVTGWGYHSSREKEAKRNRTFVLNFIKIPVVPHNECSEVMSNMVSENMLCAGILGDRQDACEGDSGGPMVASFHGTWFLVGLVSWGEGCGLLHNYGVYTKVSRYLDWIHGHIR
Sequence of APC (P04070 43-197 partner limits assumed): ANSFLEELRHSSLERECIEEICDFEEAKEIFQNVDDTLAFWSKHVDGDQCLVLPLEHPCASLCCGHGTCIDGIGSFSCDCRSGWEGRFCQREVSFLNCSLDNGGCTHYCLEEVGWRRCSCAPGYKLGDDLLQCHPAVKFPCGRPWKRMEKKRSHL

TRYPSIN = target: T1, TRYPSIN (Bos taurus, UniProt P00760); experiment: trypsin protease inhibition assay
T1 construct: gene PRSS1
T1 sequence (P00760 24-246): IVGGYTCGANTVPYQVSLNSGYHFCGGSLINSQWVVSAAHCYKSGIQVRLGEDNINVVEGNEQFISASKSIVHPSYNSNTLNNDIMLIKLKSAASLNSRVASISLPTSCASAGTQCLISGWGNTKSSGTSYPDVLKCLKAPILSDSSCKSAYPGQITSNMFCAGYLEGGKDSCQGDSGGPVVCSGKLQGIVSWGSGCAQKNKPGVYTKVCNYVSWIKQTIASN

TPA = TPA (Homo sapiens, UniProt P00750); experiment: TPA protease inhibition assay
Sequence of TPA (P00750 36-562, species assumed): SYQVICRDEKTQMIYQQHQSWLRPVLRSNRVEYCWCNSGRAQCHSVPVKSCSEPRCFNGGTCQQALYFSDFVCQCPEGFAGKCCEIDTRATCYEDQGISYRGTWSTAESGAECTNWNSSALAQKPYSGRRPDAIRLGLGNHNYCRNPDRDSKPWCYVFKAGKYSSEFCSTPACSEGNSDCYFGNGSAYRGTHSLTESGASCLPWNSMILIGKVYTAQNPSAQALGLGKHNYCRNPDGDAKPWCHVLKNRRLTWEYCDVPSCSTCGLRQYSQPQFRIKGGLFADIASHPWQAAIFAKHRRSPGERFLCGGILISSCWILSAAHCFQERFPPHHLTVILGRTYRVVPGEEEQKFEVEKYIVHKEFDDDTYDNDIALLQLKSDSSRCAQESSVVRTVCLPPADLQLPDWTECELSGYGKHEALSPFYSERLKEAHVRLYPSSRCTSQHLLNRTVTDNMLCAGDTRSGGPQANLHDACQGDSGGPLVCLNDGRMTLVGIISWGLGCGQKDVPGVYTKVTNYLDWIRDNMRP

prothrombinase complex = prothrombinase complex (Homo sapiens, UniProt P00742); experiment: prothrombinase inhibition assay (IIASE), plasma free system; conditions: factor Xa 0.5 nM, factor Va 2 nM, phospholipid, Chromozym TH
Sequence of prothrombinase complex (P00742 235-488 limits assumed): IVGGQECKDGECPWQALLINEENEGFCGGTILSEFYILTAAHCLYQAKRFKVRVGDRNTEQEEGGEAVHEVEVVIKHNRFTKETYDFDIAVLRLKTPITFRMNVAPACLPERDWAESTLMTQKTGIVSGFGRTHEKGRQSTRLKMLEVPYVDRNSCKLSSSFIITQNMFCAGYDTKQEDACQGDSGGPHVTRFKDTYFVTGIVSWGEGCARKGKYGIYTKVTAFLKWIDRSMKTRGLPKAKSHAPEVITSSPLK
Sequence of prothrombinase complex (P00742 41-179 partner limits assumed): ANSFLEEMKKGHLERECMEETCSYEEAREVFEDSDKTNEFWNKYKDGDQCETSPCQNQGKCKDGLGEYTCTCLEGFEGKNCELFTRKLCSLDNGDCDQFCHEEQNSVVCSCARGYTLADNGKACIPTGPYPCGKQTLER
Sequence of prothrombinase complex (P12259 29-737 partner limits assumed): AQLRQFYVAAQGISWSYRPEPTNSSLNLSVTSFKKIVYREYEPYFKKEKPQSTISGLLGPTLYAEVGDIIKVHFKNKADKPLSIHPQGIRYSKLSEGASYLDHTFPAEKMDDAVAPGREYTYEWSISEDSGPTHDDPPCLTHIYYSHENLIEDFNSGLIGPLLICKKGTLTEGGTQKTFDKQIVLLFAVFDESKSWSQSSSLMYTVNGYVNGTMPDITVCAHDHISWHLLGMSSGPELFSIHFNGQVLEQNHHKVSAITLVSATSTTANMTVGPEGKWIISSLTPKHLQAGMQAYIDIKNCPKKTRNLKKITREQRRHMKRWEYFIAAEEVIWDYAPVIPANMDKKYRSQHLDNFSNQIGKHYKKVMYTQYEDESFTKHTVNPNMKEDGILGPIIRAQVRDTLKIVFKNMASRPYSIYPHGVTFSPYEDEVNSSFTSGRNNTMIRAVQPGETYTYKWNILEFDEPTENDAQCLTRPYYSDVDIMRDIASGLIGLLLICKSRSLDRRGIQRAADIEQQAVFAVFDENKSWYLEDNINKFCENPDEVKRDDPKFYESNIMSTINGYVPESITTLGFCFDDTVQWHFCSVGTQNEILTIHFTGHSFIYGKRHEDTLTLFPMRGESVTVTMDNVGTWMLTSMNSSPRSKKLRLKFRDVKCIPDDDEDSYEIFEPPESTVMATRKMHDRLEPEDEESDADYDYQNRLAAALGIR
Sequence of prothrombinase complex (P12259 1574-2224 partner limits assumed): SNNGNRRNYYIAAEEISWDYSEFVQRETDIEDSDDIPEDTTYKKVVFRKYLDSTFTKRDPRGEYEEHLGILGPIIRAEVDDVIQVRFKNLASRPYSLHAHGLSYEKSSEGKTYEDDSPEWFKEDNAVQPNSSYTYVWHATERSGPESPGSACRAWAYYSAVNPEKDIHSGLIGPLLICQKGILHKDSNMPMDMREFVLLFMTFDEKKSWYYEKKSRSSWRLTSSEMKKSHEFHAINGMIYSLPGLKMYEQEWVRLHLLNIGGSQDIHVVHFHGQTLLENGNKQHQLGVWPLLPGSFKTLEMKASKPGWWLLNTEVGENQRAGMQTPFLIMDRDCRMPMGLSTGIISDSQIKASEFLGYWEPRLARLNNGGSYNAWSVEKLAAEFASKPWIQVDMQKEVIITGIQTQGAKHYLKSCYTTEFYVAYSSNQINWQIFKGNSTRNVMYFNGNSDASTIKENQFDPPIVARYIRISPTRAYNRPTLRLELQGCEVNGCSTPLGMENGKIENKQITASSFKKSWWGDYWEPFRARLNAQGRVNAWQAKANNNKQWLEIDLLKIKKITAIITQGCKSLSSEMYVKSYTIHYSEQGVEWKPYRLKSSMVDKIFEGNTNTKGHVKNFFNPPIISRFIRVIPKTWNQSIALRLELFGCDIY
Description: as §1
The prothrombinase inhibition assay was performed in a plasma free system with modifications to the method described by Sinha, U. et al., Thromb. Res., 75, 427-436 (1994). Specifically, the activity of the prothrombinase complex was determined by measuring the time course of thrombin generation using the p-nitroanilide substrate Chromozym TH. The assay consists of preincubation (5 minutes) of selected compounds to be tested as inhibitors with the complex formed from factor Xa (0.5 nM), factor Va (2 nM), phosphatidyl serine:phosphatidyl choline (25:75, 20 μM) in 20 mM Tris.HCl buffer, pH 7.5, containing 0.15 M NaCl, 5 mM CaCl2 and 0.1% bovine serum albumin. Aliquots from the complex-inhibitor mixture were added to prothrombin (1 nM) and Chromozym TH (0.1 mM). The rate of substrate cleavage was monitored at 405 nm for two minutes. Eight different concentrations of inhibitor were assayed in duplicate. A standard curve of thrombin generation by an equivalent amount of untreated complex was used for determination of percent inhibition.

KALLIKREIN = experiment: kallikrein protease inhibition assay
PLASMIN = PLASMIN (Homo sapiens, UniProt P00747); experiment: plasmin protease inhibition assay
Sequence of PLASMIN (P00747 581-810 limits assumed, species assumed): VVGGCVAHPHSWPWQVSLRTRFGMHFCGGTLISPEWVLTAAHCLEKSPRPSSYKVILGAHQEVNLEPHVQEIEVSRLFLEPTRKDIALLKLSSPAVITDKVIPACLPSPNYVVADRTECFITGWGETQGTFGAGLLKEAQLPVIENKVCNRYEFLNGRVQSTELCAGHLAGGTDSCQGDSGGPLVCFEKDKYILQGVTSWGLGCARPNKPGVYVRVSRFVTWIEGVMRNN
Sequence of PLASMIN (P00747 97-580 partner limits assumed, species assumed): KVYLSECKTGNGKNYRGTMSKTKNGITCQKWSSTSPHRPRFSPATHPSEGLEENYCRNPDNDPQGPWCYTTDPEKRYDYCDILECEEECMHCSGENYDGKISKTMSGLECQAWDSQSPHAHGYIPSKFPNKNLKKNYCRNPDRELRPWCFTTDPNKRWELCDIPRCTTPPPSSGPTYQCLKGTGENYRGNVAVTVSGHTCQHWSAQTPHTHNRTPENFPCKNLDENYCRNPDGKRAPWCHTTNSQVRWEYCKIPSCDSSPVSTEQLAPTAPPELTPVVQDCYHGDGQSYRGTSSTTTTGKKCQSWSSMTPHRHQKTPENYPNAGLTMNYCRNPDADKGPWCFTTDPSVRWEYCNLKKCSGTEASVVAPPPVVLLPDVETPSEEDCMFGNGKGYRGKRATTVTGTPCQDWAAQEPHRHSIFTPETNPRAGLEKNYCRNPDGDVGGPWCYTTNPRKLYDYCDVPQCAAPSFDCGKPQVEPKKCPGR

factor Xa = factor Xa (Homo sapiens, UniProt P00742); experiment: factor Xa amidolytic assay (XA); conditions: substrate S-2765, pH 7.5, room temperature
Sequence of factor Xa (P00742 235-488 limits assumed): as the sequence (P00742 235-488 limits assumed) above
Sequence of factor Xa (P00742 41-179 partner limits assumed): as the sequence (P00742 41-179 partner limits assumed) above
Description: as §1, §2

| SMILES | IC50 (thrombin) [nM] | IC50 (APC) [nM] | IC50 (TRYPSIN) [nM] | IC50 (TPA) [nM] | IC50 (prothrombinase complex) [nM] | IC50 (KALLIKREIN) [nM] | IC50 (PLASMIN) [nM] | IC50 (factor Xa) [nM] |
| --- | --- | --- | --- | --- | --- | --- | --- | --- |
| CC(=N)N1CCC(Oc2ccc3c(c2)n(Cc2ccc4ccc(C(=N)N)cc4c2)c(=O)n3C(C)C)CC1 [Example 8] | 30200 | 2480 | 349 | 77800 | 425 | 349 | 3500 | 28.6 |
| N=C(N)c1ccc(Cn2c(=O)[nH]c3ccc(OC4CCN(C(=N)N)CC4)cc32)cc1 [Example 1] | 333000 | 99200 | 21800 |  |  | 9540 |  | 9220 |
| CCn1c(Cn2c(=O)[nH]c3ccc(OC4CCN(C(=N)N)CC4)cc32)cc2ccc(C(=N)N)cc21 [Example 18] | 302 |  | 509 |  | 470 |  |  | 1770 |
| CCn1c(Cn2c(=O)[nH]c3ccc(OC4CCN(C(C)=N)CC4)cc32)cc2ccc(C(=N)N)cc21 [Example 17] | 267 |  | 409 |  | 526 |  |  | 14000 |
| CC(=N)N1CCC(Oc2ccc3c(c2)n(Cc2ccc4ccc(C(=N)N)cc4c2)c(=O)n3CC(=O)O)CC1 [Example 14] |  | 19300 | 192 | 88100 | 481 | 2950 | 6040 | 8.15 |
| CC(C)n1c(=O)n(Cc2ccc3ccc(C(=N)N)cc3c2)c2cc(OC3CCN(C(=N)N)CC3)ccc21 [Example 9] | 14900 | 1850 | 392 | 92800 | 827 | 392 | 2230 | 49.8 |

The next compounds have a lower IC50 (TRYPSIN) than those just listed; values first:

| IC50 (thrombin) [nM] | IC50 (APC) [nM] | IC50 (TRYPSIN) [nM] | IC50 (TPA) [nM] | IC50 (prothrombinase complex) [nM] | IC50 (KALLIKREIN) [nM] | IC50 (PLASMIN) [nM] | IC50 (factor Xa) [nM] | SMILES |
| --- | --- | --- | --- | --- | --- | --- | --- | --- |
| 264000 | 8120 | 81.6 | 54000 | 103 | 1340 | 4220 | 10.8 | CC(=N)N1CCC(Oc2ccc3c(c2)n(Cc2ccc4ccc(C(=N)N)cc4c2)c(=O)n3CC(=O)OCC(C)C)CC1 [Example 12] |
|  | 49800 | 163 | 169000 | 4220 | 9220 | 17000 | 67.1 | N=C(N)c1ccc2ccc(Cn3c(=O)n(CC(=O)O)c4ccc(OC5CCN(C(=N)N)CC5)cc43)cc2c1 [Example 15] |
| 59900 | 6510 | 44.1 | 42800 | 250 | 1250 | 2710 | 17.8 | CC(C)COC(=O)Cn1c(=O)n(Cc2ccc3ccc(C(=N)N)cc3c2)c2cc(OC3CCN(C(=N)N)CC3)ccc21 [Example 13] |
| 286000 | 15900 | 133 | 101000 | 22.2 | 508 | 8940 | 20.4 | CC(=N)N1CCC(Oc2ccc3[nH]c(=O)n(Cc4ccc5ccc(C(=N)N)cc5c4)c3c2)CC1 [Example 4] |
| 32100 | 7650 | 55.7 | 36100 | 422 | 592 | 3670 | 27 | CC(=N)N1CCC(Oc2ccc3c(c2)n(Cc2ccc4ccc(C(=N)N)cc4c2)c(=O)n3C)CC1 [Example 6] |
| 24500 | 6420 | 32.2 | 31800 | 401 | 615 | 2980 | 32 | Cn1c(=O)n(Cc2ccc3ccc(C(=N)N)cc3c2)c2cc(OC3CCN(C(=N)N)CC3)ccc21 [Example 7] |
